# Laboratory results reported in ChEMBL document CHEMBL5500404, “Discovery and Development of NLRP3 Inhibitors Targeting the LRR Domain to Disrupt NLRP3-NEK7 Interaction for the Treatment of Rheumatoid Arthritis” (J Med Chem, 2024).
# Active and inactive are the calls of the source. No cut-off for these calls is given here.
# Legend:
# [1] = Cytotoxicity against human THP-1 cells assessed as cellular proliferation inhibition measured after 48 hrs by MTT assay; format: toxicity, cell-based
# [2] = system: THP-M; assay: Inhibition of NLRP3 and […] protein-protein interaction in human THP-M cells assessed as suppression activation of NLRP3 inflammasome by affecting ASC oligomerization at 10 to 50 uM pretreated for 24 hrs followed by stimulated with LPS for 3 hrs and ATP for 1 hr by co-IP analysis; format: cell-based; conditions: dose 10-50 µM, time 28.0 hrs
# [3] = MRT (0 to infinity) in Sprague-Dawley rat at 20 mg/kg, ip measured upto 720 mins by LC-MS/MS analysis; format: ADME, organism-based; conditions: in vivo
# [4] = MRT (0 to t) in Sprague-Dawley rat at 20 mg/kg, IG measured upto 1440 mins by LC-MS/MS analysis; format: ADME, organism-based; conditions: in vivo, po
# [5] = Bioavailability in Sprague-Dawley rat at 20 mg/kg, ip measured upto 720 mins by LC-MS/MS analysis; format: ADME, organism-based; conditions: in vivo
# [6] = MRT (0 to infinity) in Sprague-Dawley rat at 20 mg/kg, IG measured upto 1440 mins by LC-MS/MS analysis; format: ADME, organism-based; conditions: in vivo, po
# [7] = AUC (0 to infinity) in Sprague-Dawley rat at 20 mg/kg, IG measured upto 1440 mins by LC-MS/MS analysis; format: ADME, organism-based; conditions: in vivo, po
# [8] = AUC (0 to t) in Sprague-Dawley rat at 20 mg/kg, ip measured upto 720 mins by LC-MS/MS analysis; format: ADME, organism-based; conditions: in vivo
# [9] = Half life in Sprague-Dawley rat at 20 mg/kg, IG measured upto 1440 mins by LC-MS/MS analysis; format: ADME, organism-based; conditions: in vivo, po
# [10] = AUC (0 to infinity) in Sprague-Dawley rat at 20 mg/kg, ip measured upto 720 mins by LC-MS/MS analysis; format: ADME, organism-based; conditions: in vivo, 12 h
# [11] = Apparent volume of distribution during terminal phase in Sprague-Dawley rat at 20 mg/kg, ip measured upto 720 mins by LC-MS/MS analysis; format: ADME, organism-based; conditions: in vivo, read-out: Vz/F
# [12] = Cmax in Sprague-Dawley rat at 20 mg/kg, IG measured upto 1440 mins by LC-MS/MS analysis; format: ADME, organism-based; conditions: in vivo, po
# [13] = Tmax in Sprague-Dawley rat at 20 mg/kg, IG measured upto 1440 mins by LC-MS/MS analysis; format: ADME, organism-based; conditions: in vivo, po
# [14] = Apparent clearance during terminal phase in Sprague-Dawley rat at 20 mg/kg, IG measured upto 1440 mins by LC-MS/MS analysis; format: ADME, organism-based; conditions: in vivo, po
# [15] = MRT (0 to t) in Sprague-Dawley rat at 20 mg/kg, ip measured upto 720 mins by LC-MS/MS analysis; format: ADME, organism-based; conditions: in vivo
# [16] = Apparent volume of distribution during terminal phase in Sprague-Dawley rat at 20 mg/kg, IG measured upto 1440 mins by LC-MS/MS analysis; format: ADME, organism-based; conditions: in vivo, po, read-out: Vz/F
# [17] = Half life in Sprague-Dawley rat at 20 mg/kg, ip measured upto 720 mins by LC-MS/MS analysis; format: ADME, organism-based; conditions: in vivo
# [18] = AUC (0 to t) in Sprague-Dawley rat at 20 mg/kg, IG measured upto 1440 mins by LC-MS/MS analysis; format: ADME, organism-based; conditions: in vivo, po
# [19] = system: Rattus norvegicus; assay: Anti-inflammatory activity against complete Freund's adjuvant (CFA)-induced arthritis rat model assessed as synovial hyperplasia in rat synovium from the left rear ankle at 10 mg/kg, ip treated after 17 days of CFA challenge measured after 18 days (day 17 to 34) by H and E staining based assay relative to model group; format: functional, organism-based; conditions: time 18.0 day
Compound,IC50 at 48 h [1] [µM],also measured
CNC(=O)c1ccc(Cn2c(SCC3CCCCC3)nc3ccncc32)cc1,> 100,
COCCNC(=O)c1ccc(Cn2c(SCC3CCCCC3)nc3ccncc32)cc1,96.3,
O=C(c1ccc(Cn2c(SCC3CCCCC3)nc3ccncc32)cc1)N1CCOCC1,> 100,
CCCNC(=O)CCCCn1c(=O)c2ccccc2n(CC(=O)NCc2ccc(F)cc2)c1=O,> 100,
CCCNC(=O)c1ccc(Cn2c(SCC3CCCCC3)nc3ccncc32)cc1,> 100,
COCCCNC(=O)c1ccc(Cn2c(SCc3ccc([N+](=O)[O-])cc3)nc3ccncc32)cc1,> 100,
COc1ccc(N2CCN(CCCNC(=O)c3nnc(Cc4ccc(F)cc4)o3)CC2)cc1,> 100,
COCCCNC(=O)c1ccc(Cn2c(SCc3cccc(F)c3)nc3ccncc32)cc1,> 100,
CCOCCCNC(=O)c1ccc(CSc2nc3ccncc3n2Cc2cccc(F)c2)cc1,> 100,
COCCCNC(=O)c1ccc(Cn2c(SCc3ccc(C(F)(F)F)cc3)nc3ccncc32)cc1,51.1,
COCCCNC(=O)c1ccc(Cn2c(SCc3cc(C)cc(C)c3)nc3ccncc32)cc1,> 100,
COCCCNC(=O)c1ccc(Cn2c(SCC3CC3)nc3ccncc32)cc1,> 100,
COCCCNC(=O)c1ccc(Cn2c(SCc3ccccn3)nc3ccncc32)cc1,> 100,
CC(C)c1ccc(Cn2c(SCC3CCCCC3)nc3ccncc32)cc1,77.3,
O=C(c1ccc(Cn2c(SCC3CCCCC3)nc3ccncc32)cc1)N1CCCC1,> 100,
COCCCNC(=O)c1ccc(Cn2c(SCC3CCC3)nc3ccncc32)cc1,> 100,
COCCCNC(=O)c1ccc(Cn2c(SCc3ccccc3)nc3ccncc32)cc1,> 100,
COc1ccc(N2CCN(CCCNC(=O)COCc3cc(-c4ccc5c(c4)OCO5)on3)CC2)cc1,85.2,
CCCCNC(=O)c1ccc(Cn2c(SCC3CCCCC3)nc3ccncc32)cc1,> 100,
COCCCNC(=O)c1ccc(Cn2c(SCc3ccc(OC)cc3)nc3ccncc32)cc1,> 100,
CCCC(=O)Nc1ccc(Cn2c(SCC3CCCCC3)nc3ccncc32)cc1,> 100,
COc1ccc(-c2[nH]c3ccccc3c2SCCNC(=O)c2ccc(S(=O)(=O)N3CCOCC3)cc2)cc1,> 100,
CCOC(=O)c1ccc(Cn2c(SCC3CCCCC3)nc3ccncc32)cc1,> 100,inhibition [2]: Active
CCCCCNC(=O)c1ccc(Cn2c(SCC3CCCCC3)nc3ccncc32)cc1,87.5,
COCCCNC(=O)c1ccc(Cn2c(SCc3ccc(Cl)cc3)nc3ccncc32)cc1,23,
COc1ccc(C2=NN(C(=O)CSc3nnc(CNC(=O)COc4ccccc4)n3CCc3ccccc3)C(c3ccc(OC)cc3)C2)cc1 (configuration not stated),> 100,
COCCCNC(=O)c1ccc(Cn2c(SCc3cccc(C)c3)nc3ccncc32)cc1,> 100,

Compound,IC50 at 48 h [1] [µM],also measured
CCOCCCNC(=O)c1ccc(CSc2nc3ccncc3n2Cc2cccc(OC)c2)cc1,> 100,
COCCCNC(=O)c1ccc(Cn2c(SCc3cccnc3)nc3ccncc32)cc1,> 100,
O=C(c1ccccc1)c1ccc(Cn2c(SCC3CCCCC3)nc3ccncc32)cc1,72.4,
CCNC(=O)c1ccc(Cn2c(SCC3CCCCC3)nc3ccncc32)cc1,> 100,
COCCCNC(=O)c1ccc(Cn2c(SCc3cc(F)cc(F)c3)nc3ccncc32)cc1,> 100,
COCCCNC(=O)c1ccc(Cn2c(SCc3ccc(C)cc3)nc3ccncc32)cc1,> 100,
CC(C)(C)c1ccc(Cn2c(SCC3CCCCC3)nc3ccncc32)cc1,93.5,
COCCCNC(=O)c1ccc(Cn2c(SCc3ccc(C#N)cc3)nc3ccncc32)cc1,> 100,
COC(=O)c1ccc(Cn2c(SCC3CCCCC3)nc3ccncc32)cc1,> 100,
CC(=O)Nc1ccc(Cn2c(SCC3CCCCC3)nc3ccncc32)cc1,> 100,
CNC(=O)CCn1c(SCC2CCCCC2)nc2ccncc21,> 100,
COCCCNC(=O)c1ccc(Cn2c(SCc3ccncc3)nc3ccncc32)cc1,> 100,
COCCCNC(=O)c1ccc(Cn2c(SCc3cccc([N+](=O)[O-])c3)nc3ccncc32)cc1,> 100,
COCCCNC(=O)c1ccc(Cn2c(SCc3ccc(Br)cc3)nc3ccncc32)cc1,90.3,
COC(=O)CCCCn1c(SCC2CCCCC2)nc2ccncc21,> 100,
O=C(c1ccc(Cn2c(SCC3CCCCC3)nc3ccncc32)cc1)N1CCNCC1,> 100,MRT inf [3]: 1.32 h; MRT last at 24 h [4]: 2.89 h; bioavailability [5]: 13.2%; MRT inf [6]: 4.86 h; AUC(0-inf) [7]: 906 ng·h/mL; AUC(0-t) at 12 h [8]: 1320 ng·h/mL; half-life [9]: 3.93 h; AUC [10]: 103322 ng·min/mL; Vd/F [11]: 4.96 L/kg; Cmax [12]: 280 ng/mL; Tmax [13]: 0.245 h; CL/F [14]: 500 mL/min/kg; MRT last at 12 h [15]: 0.615 h; Vd/F [16]: 193 L/kg; half-life [17]: 1.11 h; AUC(0-t) at 24 h [18]: 733 ng·h/mL
COCCCNC(=O)c1ccc(Cn2c(SCc3ccc(F)nc3)nc3ccncc32)cc1,> 100,
CCC(=O)Nc1ccc(Cn2c(SCC3CCCCC3)nc3ccncc32)cc1,> 100,
CCCc1ccc(Cn2c(SCC3CCCCC3)nc3ccncc32)cc1,87.6,
COCCCNC(=O)c1ccc(Cn2c(SCc3ccccc3F)nc3ccncc32)cc1,53.3,
CCOc1ccc(CCNC(=O)Cn2nc(-c3ccc(C)c(S(=O)(=O)N4CCCCC4)c3)c3ccccc3c2=O)cc1OCC,> 100,
CC(C)(O)c1coc(S(=O)(=O)NC(=O)Nc2c3c(cc4c2CCC4)CCC3)c1,> 100,Activity [19]: Active
COCCCNC(=O)c1ccc(Cn2c(SCC=C(C)C)nc3ccncc32)cc1,> 100,
NC(=O)c1ccc(Cn2c(SCC3CCCCC3)nc3ccncc32)cc1,> 100,
CC(C)OCCCn1c(=O)c2ccccc2n2c(CCC(=O)NCc3ccccc3)nnc12,65.5,
COCCCNC(=O)c1ccc(Cn2c(SCC3CCCC3)nc3ccncc32)cc1,> 100,
COCCCNC(=O)c1ccc(Cn2c(SCc3ccc(F)cc3)nc3ccncc32)cc1,> 100,
